Reference: US20050245527A1, “Nitrogen containing heterocyclic compounds and medicines containing the same” (priority 2002, published 2005)

Tested on: sodium channels
Assay type: cell-based
Settings: read-out: IC50 (μM), sodium channel-inhibiting activity; rat fetal cultured hippocampal neurons, SBFI fluorescence in the presence of 4-aminopyridine, 5 minutes after addition, 1 μM tetrodotoxin = 100%

SMILES | IC50 [µM]
C[C@@H]1CN(Cc2ncc[nH]c2=O)CC[C@H]1C(=O)Cc1ccccc1F (relative stereo) [Example 366, trans-3-[4-[2-(2-Fluorophenyl)acetyl]-3-methylpiperidino]methyl-1H-pyrazin-2-one] | 4.2
C[C@H]1C[C@H](C(=O)Cc2ccccc2F)CCN1Cc1ncc[nH]c1=O (relative stereo) [Example 414, trans-3-[4-[2-(2-Fluorophenyl)acetyl]-2-methylpiperidino]methyl-1H-pyrazin-2-one] | 7.9
O=c1cncc(CCN2CCCC(COc3ccccc3F)C2)[nH]1 (centres unmarked) [Example 117, 6-[2-[3-(2-Fluorophenoxymethyl)piperidino]ethyl]-1H-pyrazin-2-one] | 4.4
O=c1cncc(CCN2CCC(O)(COc3ccccc3F)CC2)[nH]1 [Example 118, 6-[2-[4-Hydroxy-4-(2-fluorophenoxymethyl)piperidino]ethyl]-1H-pyrazin-2-one] | 3.1
O=c1cncc(CCN2CCC3(CC2)CC(Oc2ccccc2F)C3)[nH]1 [Example 119, 6-[2-[2-(2-Fluorophenoxy)-7-azaspiro[3.5]non-7-yl]ethyl]-1H-pyrazin-2-one] | 8.4
O=c1cncc(CCN2CCC(O)(C#Cc3ccccc3F)CC2)[nH]1 [Example 120, 6-[2-[4-Hydroxy-4-[(2-fluorophenyl)ethynyl]piperidino]ethyl]-1H-pyrazin-2-one] | 8.5
Cc1ccccc1OCC1(C#N)CCN(Cc2ncc[nH]c2=O)CC1 [Example 121, 1-(3-Oxo-3,4-dihydro-2-pyrazinylmethyl)-4-(2-methylphenoxymethyl)piperidine-4-carbonitrile] | 5.7
Cc1ccccc1CCC1(O)CCN(Cc2ccc[nH]c2=O)CC1 [Example 125, 3-[4-Hydroxy-4-[2-(2-methylphenyl)ethyl]piperidino]methyl-1H-pyridin-2-one] | 5
O=c1[nH]ccnc1CN1CCC(CC(O)c2ccccc2F)CC1 (centres unmarked) [Example 144, 3-[4-[2-(2-Fluorophenyl)-2-hydroxyethyl]piperidino]methyl-1H-pyrazin-2-one] | 5.8
COc1ccccc1CCC1CCCN(Cc2ncc[nH]c2=O)C1 (centres unmarked) [Example 155, 3-[3-[2-(2-Methoxyphenyl)ethyl]piperidino]methyl-1H-pyrazin-2-one] | 3.5
O=c1[nH]ccnc1CN1CCC(CCOc2ccccc2F)CC1 [Example 159, 3-[4-[2-(2-Fluorophenoxy)ethyl]piperidino]methyl-1H-pyrazin-2-one] | 9.4
COc1cccc(OCC2CCN(Cc3ncc[nH]c3=O)CC2)c1 [Example 161, 3-[4-(3-Methoxyphenoxymethyl)piperidino]methyl-1H-pyrazin-2-one] | 3.5
CCOc1ccccc1OCC1CCN(Cc2ncc[nH]c2=O)CC1 [Example 165, 3-[4-(2-Ethoxyphenoxymethyl)piperidino]methyl-1H-pyrazin-2-one] | 8.4
N#Cc1ccccc1OCC1CCN(Cc2ncc[nH]c2=O)CC1 [Example 166, 3-[4-(2-Cyanophenoxymethyl)piperidino]methyl-1H-pyrazin-2-one] | 8.7
O=c1[nH]ccnc1CN1CCC(/C=C/c2sccc2F)CC1 [Example 173, (E)-3-[4-[2-(3-Fluoro-2-thienyl)vinyl]piperidino]methyl-1H-pyrazin-2-one] | 4.3
CC(Oc1ccccc1F)C1CCN(Cc2ncc[nH]c2=O)CC1 (centres unmarked) [Example 175, 3-[4-[1-(2-Fluorophenoxy)ethyl]piperidino]methyl-1H-pyrazin-2-one] | 2.6
Cc1ccc(-c2ccccc2)n1CC1CCN(Cc2ncc[nH]c2=O)CC1 [Example 182, 3-[4-(2-Methyl-5-phenylpyrrol-1-yl)methyl-piperidino]methyl-1H-pyrazin-2-one] | 7.8
O=c1[nH]ccnc1CN1CCC(c2nc(-c3ccc(F)cc3)no2)CC1 [Example 189, 3-[4-[3-(4-Fluorophenyl)-1,2,4-oxadiazol-5-yl]piperidino]methyl-1H-pyrazin-2-one] | 7.2
COC(Cc1ccccc1F)C1CCN(Cc2ncc[nH]c2=O)CC1 (centres unmarked) [Example 190, 3-[4-[2-(2-Fluorophenyl)-1-methoxyethyl]piperidino]methyl-1H-pyrazin-2-one] | 1.2
O=C(Cc1cccc(F)c1)C1CCN(Cc2ncc[nH]c2=O)CC1 [Example 191, 3-[4-[2-(3-Fluorophenyl)acetyl]piperidino]methyl-1H-pyrazin-2-one] | 7.1
O=C(Cc1cc(F)ccc1F)C1CCN(Cc2ncc[nH]c2=O)CC1 [Example 194, 3-[4-[2-(2,5-Difluorophenyl)acetyl]piperidino]methyl-1H-pyrazin-2-one] | 6.6
O=C(Cc1ccccc1)C1CCN(Cc2ncc[nH]c2=O)CC1 [Example 196, 3-[4-(2-Phenylacetyl)piperidino]methyl-1H-pyrazin-2-one] | 6.2
O=c1[nH]ccnc1CN1CCC(COc2ccc(F)cc2)CC1 [Example 199, 3-[4-(4-Fluorophenoxymethyl)piperidino]methyl-1H-pyrazin-2-one] | 6.2
O=c1[nH]ccnc1CN1CCC(C(Cc2ccccc2F)=NO)CC1 [Example 202, 3-[4-[1-Hydroxyimino-2-(2-fluorophenyl)ethyl]piperidino]methyl-1H-pyrazin-2-one] | 4.9

SMILES | IC50 [µM]
CON=C(Cc1ccccc1F)C1CCN(Cc2ncc[nH]c2=O)CC1 [Example 203, 3-[4-[2-(2-Fluorophenyl)-1-(methoxyimino)ethyl]piperidino]methyl-1H-pyrazin-2-one] | 2.3
O=C(Cc1ccccc1F)C1CCN(Cc2nc3ccccc3[nH]c2=O)CC1 [Example 206, 3-[4-[2-(2-Fluorophenyl)acetyl]piperidino]methyl-1H-quinoxalin-2-one] | 5.2
O=c1[nH]ccnc1CN1CCCCC1CCOc1ccccc1F (centres unmarked) [Example 209, 3-[2-[2-(2-Fluorophenoxy)ethyl]piperidino]methyl-1H-pyrazin-2-one] | 2.1
O=c1[nH]ccnc1CN1CCC(O)(COc2ccccc2F)CC1 [Example 211, 3-[4-Hydroxy-4-(2-fluorophenoxymethyl)piperidino]methyl-1H-pyrazin-2-one] | 8.2
O=c1[nH]ccnc1CN1CCC(c2nc(-c3ccccc3)no2)CC1 [Example 215, 3-[4-(3-Phenyl-1,2,4-oxadiazol-5-yl)piperidino]methyl-1H-pyrazin-2-one] | 4.1
CCOC(=O)C1(CCc2ccccc2)CCN(Cc2ncc[nH]c2=O)CC1 [Example 216, 3-[4-(Ethoxycarbonyl)-4-(2-phenylethyl)piperidino]methyl-1H-pyrazin-2-one] | 3.2
O=c1[nH]ccnc1CN1CCC(O)(C#Cc2ccccc2F)CC1 [Example 217, 3-[4-(2-Fluorophenyl)ethynyl-4-hydroxypiperidino]methyl-1H-pyrazin-2-one] | 1.8
Cc1ccccc1C#CC1(O)CCN(Cc2ncc[nH]c2=O)CC1 [Example 218, 3-[4-(2-Methylphenyl)ethynyl-4-hydroxypiperidino]methyl-1H-pyrazin-2-one] | 3.6
O=c1[nH]ccnc1CN1CCC(CO)(CCc2ccccc2)CC1 [Example 219, 3-[4-Hydroxymethyl-4-(2-phenylethyl)piperidino]methyl-1H-pyrazin-2-one] | 1.6
N#CC1(COc2ccccc2F)CCN(Cc2ncc[nH]c2=O)CC1 [Example 221, 3-[4-Cyano-4-(2-fluorophenoxymethyl)piperidino]methyl-1H-pyrazin-2-one] | 4.9
O=c1[nH]ccnc1CN1CCC2(CC1)CC(Oc1ccccc1F)C2 [Example 226, 3-[2-(2-Fluorophenoxy)-7-azaspiro[3.5]non-7-yl]methyl-1H-pyrazin-2-one] | 4.5
O=c1cncc(CCN2CCC(COc3cccc(F)c3)CC2)[nH]1 [Example 238, 6-[2-[4-(3-Fluorophenoxymethyl)piperidino]ethyl]-1H-pyrazin-2-one] | 5.6
COc1ccccc1OCC1CCN(CCc2cncc(=O)[nH]2)CC1 [Example 240, 6-[2-[4-(2-Methoxyphenoxymethyl)piperidino]ethyl]-1H-pyrazin-2-one] | 6.4
O=c1cncc(CCN2CCC(COc3cccc(F)c3F)CC2)[nH]1 [Example 242, 6-[2-[4-(2,3-Difluorophenoxymethyl)piperidino]ethyl]-1H-pyrazin-2-one] | 6.2
O=c1cncc(CCN2CCC(C#Cc3ccccc3F)CC2)[nH]1 [Example 244, 6-[2-[4-[(2-Fluorophenyl)ethynyl]piperidino]ethyl]-1H-pyrazin-2-one] | 3.1
O=c1cncc(CCN2CCC(COc3ccccc3)CC2)[nH]1 [Example 245, 6-[2-[4-(Phenoxymethyl)piperidino]ethyl]-1H-pyrazin-2-one] | 4.4
Cn1c(CCN2CCC(COc3ccccc3F)CC2)cncc1=O [Example 249, 6-[2-[4-(2-Fluorophenoxymethyl)piperidino]ethyl]-1-methyl-1H-pyrazin-2-one] | 3.2
CCOC(=O)C1(CCc2ccccc2)CCN(Cc2ccc[nH]c2=O)CC1 [Example 255, 3-[4-(Ethoxycarbonyl)-4-(2-phenylethyl)piperidino]methyl-1H-pyridin-2-one] | 3.1
O=c1[nH]ccnc1CN1CCC(CSc2ccccc2F)CC1 [Example 336, 3-[4-[(2-Fluorophenylthio)methyl]piperidino]methyl-1H-pyrazin-2-one] | 4.7
O=c1[nH]ccnc1CN1CCC(C[S+]([O-])c2ccccc2F)CC1 (centres unmarked) [Example 337, 3-[4-[(2-Fluorophenylsulfinyl)methyl]piperidino]methyl-1H-pyrazin-2-one] | 6.5
O=c1[nH]ccnc1CN1CCC(CS(=O)(=O)c2ccccc2F)CC1 [Example 338, 3-[4-[(2-Fluorophenylsulfonyl)methyl]piperidino]methyl-1H-pyrazin-2-one] | 9.8
O=c1[nH]ccnc1CN1CCOC(CCc2ccccc2F)C1 (centres unmarked) [Example 340, 3-[3-[2-(2-Fluorophenyl)ethyl]morpholin-1-yl]methyl-1H-pyrazin-2-one] | 7.1
O=c1[nH]ccnc1CN1CCOC(/C=C/c2ccccc2F)C1 (centres unmarked) [Example 341, (E)-3-[3-[2-(2-Fluorophenyl)vinyl]morpholin-1-yl]methyl-1H-pyrazin-2-one] | 7.1
